Patent US7807369B2, “Methods and means for the treatment of HPV induced intraepithelial neoplasia” (Leiden University Medical Center, priority 2005, dated 2010)

Key:
VIN = conditions: topical treatment of VIN; estimate from refs 17-21; cited from earlier work
[1] = tested on: HPV16 VLP-specific IgG and IgA; assay: HPV16 VLP ELISA of serum over time in imiquimod-treated patients; assay type: in vivo, human; conditions: serum at week 0, 8 and 16; 17 VIN3 patients
Procedure: IgG and IgA reactivity to HPV16 VLPs over time in 17 VIN3 patients treated with imiquimod. At least two serum specimens were tested in every patient. Serological responses are shown at week 0 (before imiquimod treatment), week 8 (during imiquimod treatment) and at week 16 (after imiquimod treatment). The OD values are depicted as median ±SD of positive responses. The OD values were calculated by subtraction of the background response value and the mean OD value of the young children's sera.
(§1) Seventeen of these 29 subjects (age 29-60 years, median 43 years) were experimentally treated with a 5% imiquimod cream. The patients were asked to apply the cream to the affected areas on the vulva twice weekly overnight for a maximum period of 16 weeks. In order to analyze the effect of imiquimod treatment on the HPV16-specific immune response, we collected serial blood and serum samples before the start of imiquimod treatment (T=0), after 8 weeks of treatment (T=8), and at the end of treatment (T=16). Vulvar lesions were assessed by direct measurement and photographic records at entry, and after 8 and 16 weeks of treatment. Clinical responses were defined as a complete response (CR), a partial response type1 (PR1), as defined by a reduction in lesion diameter from 76-99%, a partial response type2 (PR2), as defined by a reduction in lesion diameter from 26-75%, or no clinical response. […]

high-grade VIN = assay: Clinical response of high-grade VIN lesions to 5% imiquimod cream; assay type: in vivo, human
Text: Twenty-nine women with high-grade VIN (age range, 24-73 years; median age, 47 years) were recruited from the departments of gynecology of the Academic Medical Center, and Leiden and Erasmus University Medical Center, The Netherlands. On the average, these patients had been diagnosed with VIN3 5,4 years before enrollment in the study (range, 6 months-15 years). Eighteen women had undergone previous treatments for VIN3 (surgical excision, laser therapy or imiquimod treatment (#21, 24, 27)) before study entry.
Seventeen of these 29 subjects (age 29-60 years, median 43 years) were experimentally treated with a 5% imiquimod cream. The patients were asked to apply the cream to the affected areas on the vulva twice weekly overnight for a maximum period of 16 weeks. In order to analyze the effect of imiquimod treatment on the HPV16-specific immune response, we collected serial blood and serum samples before the start of imiquimod treatment (T=0), after 8 weeks of treatment (T=8), and at the end of treatment (T=16). Vulvar lesions were assessed by direct measurement and photographic records at entry, and after 8 and 16 weeks of treatment. Clinical responses were defined as a complete response (CR), a partial response type1 (PR1), as defined by a reduction in lesion diameter from 76-99%, a partial response type2 (PR2), as defined by a reduction in lesion diameter from 26-75%, or no clinical response.
Statistical analysis of the HPV16-specific proliferative responses associated with cytokine production was performed using Fisher's exact test. Fisher's Exact test (2-tailed) was used to analyze HPV-specific immunity to clinical response upon treatment with imiquimod. Statistical analyzes were performed using Graphpad Instat Software (version 3.0).

[2] = tested on: HPV16-specific IFNγ-producing T-cells; assay: HPV16-specific T-cell reactivity by IFNγ ELISPOT before, during and after imiquimod treatment; assay type: in vivo, human; conditions: PBMC at week 0, 8 and 16
Text: as §1, with “treatment.” for “treatment. Clinical responses were defined as a complete response (CR), a partial response type1 (PR1), as defined by a reduction in lesion diameter from 76-99%, a partial response type2 (PR2), as defined by a reduction in lesion diameter from 26-75%, or no clinical response.”
The number of IFNγ producing HPV-specific T-cells, present in the peripheral blood of the 17 patients treated with imiquimod, was quantified using ELISPOT that was performed as described previously (29; 30). […] Spots were counted with a fully automated computer-assisted-video-imaging analysis system (Bio Sys). Specific spots were calculated by subtracting the mean number of spots+2×SD of the medium control from the mean number of spots in experimental wells provided that the mean number of spots of the medium control wells were either <10 or >10 with a standard deviation <20% of the mean. […]

[3] = of 17 women treated, 5% cream, max 16 weeks

CC(C)Cn1cnc2c(N)nc3ccccc3c21 [imiquimod, 1-(2-methylpropyl)-1H-imidazo[4,5-c]quinolin-4-amine]
clinical success rates (VIN): 30-87%
change of HPV16 VLP-specific IgG and IgA response [1]: did not overly change
women with overt clinical response (CR or PR1, 76-100% reduction in lesion size) (high-grade VIN; 13 of 17 women with high-grade VIN, 5% cream twice weekly, max 16 weeks): 76%
likelihood of CR or PR1 in patients without an HPV-specific immune response (high-grade VIN; HPV16+ patients (n=15), versus those with a response, p=0.03, 2-sided Fisher's exact test): less likely to show such a clinical improvement
patients with no reduction in size of the affected area of vulvar disease (high-grade VIN; [3]): Three
patients with only minimal improvement upon treatment (high-grade VIN; [3]): one
patients with complete or near complete clinical response (CR or PR1) (high-grade VIN; the 8 HPV16+ patients with an HPV-specific Th1 immune response (of n=15 HPV16+)): 8 patients
effect on numbers of HPV16-specific T-cells [2]: In none of the patients a clear-cut increase of HPV16-specific T-cells was detected
